Data reported in patent publication US11000033B2, “Ketone or oxime compound, and herbicide” (NISSAN CHEMICAL CORPORATION, priority 2014, dated 2021).

Assays:
Type in all cases: in vivo
Scirpus juncoides = test: Test Example 2: herbicidal activity, application during weed generation in submerged conditions (symbol B); conditions: Table 23; application herbicide amount 320 g/ha; grade 0-5 by criteria of Test Example 1
Procedure, shortened: (§1)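 Read-out: herbicidal effect on each species rated on a visual scale 3 weeks after treatment. Plants were raised together from seed in flooded alluvial soil (4 cm water) at 25° C. to 30° C. and treated at one to two leaves by water-surface application of diluted emulsion.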

[1] = tested on: Echinochloa oryzacola Vasing.; test: Test Example 2: herbicidal activity, application during weed generation in submerged conditions (symbol A); conditions: Table 23; application herbicide amount 320 g/ha; grade 0-5 by criteria of Test Example 1
Procedure, shortened: as §1

Leptochloa chinensis = test: Test Example 3: herbicidal effect by foliage application, Wagner pot (symbol D); conditions: application herbicide amount 320 g/ha
Procedure, shortened: (§2)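 Scoring took place 3 weeks after application, using fixed criteria. Plants had been raised from seed for 14 days at 25 to 30 °C in submerged alluvial soil before a diluted emulsion of the test compound was sprayed uniformly on the leaves.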

beet = test: Test Example 5: effect on crop by foliage application, plastic box (symbol f); conditions: 320 g/ha, 3 weeks after application
Procedure, shortened: (§3)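 Greenhouse culture at 25° C. to 30° C. followed spot-like sowing into sterilized diluvial soil, with seed covered by roughly 1.5 cm of soil.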

soybean [2] = test: Test Example 5: effect on crop by foliage application, plastic box (symbol d); conditions: 320 g/ha, 3 weeks after application
Procedure, shortened: as §3

Abutilon theophrasti = test: Test Example 4: herbicidal effect by soil treatment (symbol M); conditions: application herbicide amount 320 g/ha
Procedure, shortened: (§4)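 Seeds were sown in sterilized diluvial soil, covered with about 1.5 cm of soil, and the soil surface was sprayed with a water-diluted emulsion of the compound at a predetermined rate. Plants grew in a greenhouse at 25° C. to 30° C.; effects were scored visually 3 weeks after application.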

Monochoria vaginalis = test: Test Example 1: herbicidal activity, application before weed generation in submerged conditions (symbol C); conditions: application herbicide amount 320 g/ha
Procedure, shortened: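 Paddy pre-emergence test. Formulated emulsion, water-diluted to a predetermined rate, is applied to floodwater on sowing day; rice transplanted at 2.5 leaves. Effect read at 3 weeks on a 0–5 herbicidal-ratio scale.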

corn [3] = test: Test Example 4: effect on crop by soil treatment (symbol c); conditions: application herbicide amount 320 g/ha
Procedure, shortened: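 Steps: fill box with sterilized diluvial soil; sow seed spot-like; cover with ~1.5 cm soil; grow in greenhouse (25° C. to 30° C.).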

Cyperus difformis = test: Test Example 3: herbicidal effect by foliage application, Wagner pot (symbol E); conditions: application herbicide amount 320 g/ha
Procedure, shortened: as §2

soybean [4] = test: Test Example 4: effect on crop by soil treatment (symbol d); conditions: application herbicide amount 320 g/ha
Procedure, shortened: (§5)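 Seeds were sown in spots on sterilized diluvial soil in a plastic box and covered with about 1.5 cm of soil. Plants were then grown in a greenhouse at 25° C. to 30° C.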

transplanted rice plant = test: Test Example 1: effect on crop, application before weed generation in submerged conditions (symbol a); conditions: application herbicide amount 320 g/ha
Procedure, shortened: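 Alluvial soil pots flooded to 4 cm water, sown with Echinochloa oryzacola, Scirpus juncoides and Monochoria vaginalis, then transplanted with 2.5 leaf stage rice seedlings; pre-emergence application. Greenhouse 25° C. to 30° C.; scored 0–5 by herbicidal ratio 3 weeks after application.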

Stellaria media = test: Test Example 4: herbicidal effect by soil treatment (symbol P); conditions: application herbicide amount 320 g/ha
Procedure, shortened: as §4

corn [5] = test: Test Example 5: effect on crop by foliage application, plastic box (symbol c); conditions: 320 g/ha, 3 weeks after application
Procedure, shortened: as §3

wheat = test: Test Example 4: effect on crop by soil treatment (symbol e); conditions: application herbicide amount 320 g/ha
Procedure, shortened: as §5

[6] = tested on: Echinochloa crus-galli var. crus-galli; test: Test Example 3: herbicidal effect by foliage application, Wagner pot (symbol H); conditions: application herbicide amount 320 g/ha
Procedure, shortened: as §2

rice plant = test: Test Example 5: effect on crop by foliage application, plastic box (symbol b); conditions: 320 g/ha, 3 weeks after application
Procedure, shortened: as §3

Structure (SMILES) | Herbicidal effect grade, B: Scirpus juncoides (Scirpus juncoides) | Herbicidal effect grade, A: Echinochloa oryzacola Vasing. [1] | herbicidal effect on D (Leptochloa chinensis), grade 0-5 (Leptochloa chinensis) | f: beet, effect on crop (criteria of Test Example 1) (beet) | d: soybean, effect on crop (criteria of Test Example 1) (soybean [2]) | M: Abutilon theophrasti, herbicidal effect grade (Abutilon theophrasti) | Herbicidal effect grade, C: Monochoria vaginalis (Monochoria vaginalis) | c: corn, effect on crop grade (corn [3]) | herbicidal effect on E, grade 0-5 (Cyperus difformis) | d: soybean, effect on crop grade (soybean [4]) | Effect grade on crop, a: transplanted rice plant (transplanted rice plant) | P: Stellaria media, herbicidal effect grade (Stellaria media) | c: corn, effect on crop (criteria of Test Example 1) (corn [5]) | e: wheat, effect on crop grade (wheat) | herbicidal effect on H (Echinochloa crus-galli var. crus-galli), grade 0-5 [6] | b: directly sowed rice plant, effect on crop (criteria of Test Example 1) (rice plant) | further results
CON=C(C)CC1CC(O)=C(c2c(C)cc(-c3ccc(Cl)cc3F)cc2C)C1=O (stereo not drawn) [6-084] | 3 (Herbicidal ratio of 40% or higher and lower than 70%) | 4 (Herbicidal ratio of 70% or higher and lower than 90%) | 5 (Herbicidal ratio of 90% or more (almost completely withered)) | 0 (Herbicidal ratio of 5% or lower (almost no effect)) | 5 (Herbicidal ratio of 90% or more (almost completely withered)) | 0 (Herbicidal ratio of 5% or lower (almost no effect)) | 0 (Herbicidal ratio of 5% or lower (almost no effect)) | 0 (Herbicidal ratio of 5% or lower (almost no effect)) | 5 (Herbicidal ratio of 90% or more (almost completely withered)) | 5 (Herbicidal ratio of 90% or more (almost completely withered)) | 5 (Herbicidal ratio of 90% or more (almost completely withered)) | 3 (Herbicidal ratio of 40% or higher and lower than 70%) | 0 (Herbicidal ratio of 5% or lower (almost no effect)) | 2 (Herbicidal ratio of 20% or higher and lower than 40%) | 5 (Herbicidal ratio of 90% or more (almost completely withered)) | 5 (Herbicidal ratio of 90% or more (almost completely withered)) | 
CON=C(C)CC1CC(O)=C(c2c(C)cc(-c3ccc(Cl)cc3Cl)cc2C)C1=O (stereo not drawn) [6-088] | 2 (Herbicidal ratio of 20% or higher and lower than 40%) | 4 (Herbicidal ratio of 70% or higher and lower than 90%) | 5 (Herbicidal ratio of 90% or more (almost completely withered)) | 0 (Herbicidal ratio of 5% or lower (almost no effect)) | 5 (Herbicidal ratio of 90% or more (almost completely withered)) |  | 0 (Herbicidal ratio of 5% or lower (almost no effect)) |  | 5 (Herbicidal ratio of 90% or more (almost completely withered)) |  | 3 (Herbicidal ratio of 40% or higher and lower than 70%) |  | 2 (Herbicidal ratio of 20% or higher and lower than 40%) |  | 5 (Herbicidal ratio of 90% or more (almost completely withered)) | 5 (Herbicidal ratio of 90% or more (almost completely withered)) | Herbicidal effect grade, M: Abutilon theophrasti (Abutilon theophrasti): 3 (Herbicidal ratio of 40% or higher and lower than 70%); Effect on crop grade, c: corn (corn [3]): 0 (Herbicidal ratio of 5% or lower (almost no effect)); Effect on crop grade, d: soybean (soybean [4]): 5 (Herbicidal ratio of 90% or more (almost completely withered)); Herbicidal effect grade, P: Stellaria media (Stellaria media): 5 (Herbicidal ratio of 90% or more (almost completely withered)); Effect on crop grade, e: wheat (wheat): 0 (Herbicidal ratio of 5% or lower (almost no effect))
CON=C(C)CC1CC(OC(=O)COc2ccccc2)=C(c2c(C)cc(-c3ccc(Cl)cc3)cc2OC)C1=O (stereo not drawn) [6-079] | 2 (Herbicidal ratio of 20% or higher and lower than 40%) | 3 (Herbicidal ratio of 40% or higher and lower than 70%) | 5 (Herbicidal ratio of 90% or more (almost completely withered)) | 0 (Herbicidal ratio of 5% or lower (almost no effect)) |  | 1 (Herbicidal ratio of 5% or higher and lower than 20%) | 2 (Herbicidal ratio of 20% or higher and lower than 40%) | 0 (Herbicidal ratio of 5% or lower (almost no effect)) | 4 (Herbicidal ratio of 70% or higher and lower than 90%) | 0 (Herbicidal ratio of 5% or lower (almost no effect)) | 5 (Herbicidal ratio of 90% or more (almost completely withered)) | 0 (Herbicidal ratio of 5% or lower (almost no effect)) | 5 (Herbicidal ratio of 90% or more (almost completely withered)) | 3 (Herbicidal ratio of 40% or higher and lower than 70%) | 5 (Herbicidal ratio of 90% or more (almost completely withered)) | 5 (Herbicidal ratio of 90% or more (almost completely withered)) | 
CON=C(C)CC1CC(O)=C(c2c(C)cc(C3CC3)cc2C)C1=O (stereo not drawn) [6-050] | 0 (Herbicidal ratio of 5% or lower (almost no effect)) | 3 (Herbicidal ratio of 40% or higher and lower than 70%) | 5 (Herbicidal ratio of 90% or more (almost completely withered)) |  |  | 0 (Herbicidal ratio of 5% or lower (almost no effect)) | 0 (Herbicidal ratio of 5% or lower (almost no effect)) | 1 (Herbicidal ratio of 5% or higher and lower than 20%) | 5 (Herbicidal ratio of 90% or more (almost completely withered)) | 0 (Herbicidal ratio of 5% or lower (almost no effect)) | 4 (Herbicidal ratio of 70% or higher and lower than 90%) | 3 (Herbicidal ratio of 40% or higher and lower than 70%) |  | 0 (Herbicidal ratio of 5% or lower (almost no effect)) | 5 (Herbicidal ratio of 90% or more (almost completely withered)) |  | f: beet, effect on crop grade (beet): 2 (Herbicidal ratio of 20% or higher and lower than 40%); d: soybean, effect on crop grade (soybean [2]): 0 (Herbicidal ratio of 5% or lower (almost no effect)); c: corn, effect on crop grade (corn [5]): 4 (Herbicidal ratio of 70% or higher and lower than 90%); b: directly sowed rice plant, effect on crop grade (rice plant): 5 (Herbicidal ratio of 90% or more (almost completely withered))
CON=C(C)CC1CC(OC(=O)N2CCOCC2)=C(c2c(C)cc(-c3ccc(Cl)cc3)cc2OC)C1=O (stereo not drawn) [6-078, 2-(4′-chloro-3-methoxy-5-methyl-[1,1′-biphenyl]-4-yl)-4-{2-(methoxyimino)propyl}-3-oxocyclopent-1-ene-1-yl morpholine-4-carboxylate] | 2 (Herbicidal ratio of 20% or higher and lower than 40%) | 4 (Herbicidal ratio of 70% or higher and lower than 90%) | 5 (Herbicidal ratio of 90% or more (almost completely withered)) | 0 (Herbicidal ratio of 5% or lower (almost no effect)) | 0 (Herbicidal ratio of 5% or lower (almost no effect)) | 1 (Herbicidal ratio of 5% or higher and lower than 20%) | 4 (Herbicidal ratio of 70% or higher and lower than 90%) | 0 (Herbicidal ratio of 5% or lower (almost no effect)) | 0 (Herbicidal ratio of 5% or lower (almost no effect)) | 1 (Herbicidal ratio of 5% or higher and lower than 20%) | 5 (Herbicidal ratio of 90% or more (almost completely withered)) | 0 (Herbicidal ratio of 5% or lower (almost no effect)) | 5 (Herbicidal ratio of 90% or more (almost completely withered)) | 0 (Herbicidal ratio of 5% or lower (almost no effect)) | 5 (Herbicidal ratio of 90% or more (almost completely withered)) |  | 
